US20080279907A1, “Antimicrobial medical devices and methods for making and using same” (Ash Access Technology, Inc., priority 2007, published 2008)
“And” between values parts separate entries of the source, which are not always exact repeats. Equal entries are not always repeated.

How the values were obtained:
Format in all cases: physicochemical
[1] = Total methylene blue loaded onto and released from polycarbonate discs and catheters, desorbed in MeOH (0.1% TFA), UV 662 nm
Method: An experiment was performed in order to determine the total amount of methylene blue that was loaded onto a polycarbonate disc in comparison to a polycarbonate catheter. The discs were 1.27 cm or 0.5 inches in diameter and included a surface area of 2.53 cm^2 and a thickness of 0.60 mm. The catheter pieces were 1″ long and included a surface area of 4.64 cm^2 and a thickness of 0.51 mm. A 160 ml solution of 0.24 M sodium citrate was prepared into which 0.1% or […] of methylene blue was added. Then, 2%, or 3.2 g of ascorbic acid, was added to the solution and mixed for 1-2 minutes and 10 ml of the solution was placed into 25 ml flasks. The discs and catheter pieces were rinsed and placed into the 25 ml flasks of solution and placed on a shaker at 220 rpm at 37° C. for three hours. The catheter pieces and discs were removed, rinsed with distilled water, and dried. The catheter pieces and discs were desorbed in 20 ml of MeOH (w/0.1% TFA) and placed on the shaker until the membranes appeared whitish in color. Appropriate dilutions were made and the UV absorbance was measured at 662 nm. The methylene blue concentration was calculated based on a standard curve generated in a similar manner. The results are set forth below in Table 4 and 5.

[2] = Leaching of methylene blue from treated catheter into normal saline replaced monthly; conditions: catheter treated with only methylene blue
Text: When the saline is replaced with fresh saline, exactly the same intense blue color developed in the fresh saline solution during the second month. This process of replacing the saline solution can be continued, that is, replacing the saline solution with fresh solution monthly, for at least nine months. The color resulting during the sixth month in the fresh saline solution is a light blue. If the process is continued for an additional 3 months or up to a total of 9 months, the resulting fresh saline solution is light blue in color, but the release of the dye continues.

[3] = Perfusion of parabens and methylene blue through polycarbonate membrane in perfusion chamber (HPLC of lower chamber); conditions: for perfusion of methylene blue through membrane without activation: only 1,2-propanediol solution, absence of Citrate and activation by AA, after 4.5 days (Treatments 1 and 2)
Method: An experiment was performed to determine a method for perfusing methylene blue, methyl paraben, and propyl paraben through a polycarbonate membrane with causing only minimal changes to the strength and elasticity of the membrane. In FIG. 12, there is illustrated a perfusion chamber system 50 used during the experiment. System 50 includes an upper chamber 51 and a lower chamber 52 separated by a polycarbonate membrane 53 having a thickness of 0.60 mm. The upper and lower chambers 51, 52 are generally structured to hold 10.5 cm^3 or 10.5 ml of fluid. The upper chamber 51 was connected to a peristaltic pump (not shown) and the lower chamber 52 was filled with distilled water. First and second solutions, respectively including the parabens and the methylene blue, were prepared in accordance with the method set forth in EXAMPLE 6 above. As best seen in Tables 6 and 7 below, the solutions were connected to the pump and passed through the first chamber 51 at a constant rate at 37° C. over various lengths of time.
Table 6 includes data obtained from HPLC analysis comparing the methyl paraben, propyl paraben, and methylene blue concentrations in the lower chamber 52. The parameters for the methyl and propyl paraben and methylene blue treatments are indicated in the left hand columns.

[4] = Desorption of methylene blue from impregnated catheter pieces in 0.9% saline (HPLC)
Method: In another form of the present application, one inch polycarbonate catheter pieces including a surface area of about 4.64 cm^2 were impregnated with methylene blue. A solution of 0.24 M sodium citrate buffer pH 4.5 was prepared with 100 mg % methylene blue activated by 2% L-ascorbic acid immediately beforehand. Catheter pieces were placed in flasks containing the solution and the flasks were placed on a shaker at 220 rpm and 27° C. for 3 hours.
Desorption analysis of the methylene blue impregnated catheter pieces was performed in a 0.9% solution of saline. The total amount of methylene blue released from the catheter pieces was calculated using HPLC analysis performed with a Waters Alliance 2690 including a 996 Photodiode Array Detector according to conditions in Example 4. The results of the HPLC analysis corresponding to the desorption of methylene blue from the methylene blue impregnated polymeric material are set forth in the graph of FIG. 10.
One inch polycarbonate catheter pieces including a surface area of about 4.64 cm^2 were impregnated with methyl paraben and propyl paraben. A solution of 100% 1,2-propanediol was prepared with 9% methyl paraben and 2% propyl paraben. Pairs of the one inch catheter pieces were placed into three 25 ml flasks including 10 ml of parabens solution. The flasks were placed on a shaker at 220 rpm and 27° C. for two, four, or nine hours. At the end of each time period, the catheter pieces were removed, rinsed with distilled water, and dried.
The catheter pieces were then impregnated with methylene blue. A solution of 0.24 M sodium citrate buffer with a pH of 4.5 was prepared with 100 mg % methylene blue activated by 2% L-ascorbic acid immediately beforehand. Catheter pieces were placed in flasks containing the solution and the flasks were placed on a shaker at 220 rpm and 27° C. for 3 hours. Desorption analysis of the parabens and methylene blue impregnated catheter pieces was performed in a 0.9% solution of saline according to the method described earlier.

[5] = No Parabens, MB treatment 3 hrs 0.24 M Citrate buffer, 4.5 pH
[6] = paraben treatment 2 hrs- 100% PG, 9% MP, 2% PP, MB treatment 3 hrs
[7] = paraben treatment 4 hrs- 100% PG, 9% MP, 2% PP, MB treatment 3 hrs
[8] = paraben treatment 9 hrs- 100% PG, 9% MP, 2% PP, MB treatment 3 hrs
[9] = flat polycarbonate disc (discs 1-4), NO Parabens, MB treatment 3 hrs 0.24M Citrate Buffer, 4.5 pH, 100 mg % MB, 2% AA

CN(C)c1ccc2nc3ccc(=[N+](C)C)cc-3sc2c1 [MB, methylene blue]
factor by which flat discs exceed catheters in total sorption and desorption of methylene blue per cm^2 ([1]; Tables 4 and 5, no parabens): ~6.8
Average ug/cm^2 MB released ([1]; average of flat discs 1-4, NO Parabens, MB treatment 3 hrs): 1942.8 ug/cm^2
% MB released from catheter in saline desorption/total released in MeOH (0.1% TFA) [1, 5]: 58.8%
mg released based on 1″ of catheter [1, 5]: 1.32 mg
mg released per cm^2 of catheter [1, 5]: 0.284 mg per cm^2
ug released per cm^2 of catheter [1, 5]: 284.5 ug per cm^2
% MB released from catheter in saline desorption/total released in MeOH (0.1% TFA) [1, 6]: 73.2%
mg released based on 1″ of catheter [1, 6]: 1.65 mg
mg released per cm^2 of catheter [1, 6]: 0.356 mg per cm^2
ug released per cm^2 of catheter [1, 6]: 356.3 ug per cm^2
% MB released from catheter in saline desorption/total released in MeOH (0.1% TFA) [1, 7]: 65.5%
mg released based on 1″ of catheter [1, 7]: 1.71 mg
mg released per cm^2 of catheter [1, 7]: 0.368 mg per cm^2
ug released per cm^2 of catheter [1, 7]: 368.5 ug per cm^2
% MB released from catheter in saline desorption/total released in MeOH (0.1% TFA) [1, 8]: 76.4%
mg released based on 1″ of catheter [1, 8]: 1.78 mg
mg released per cm^2 of catheter [1, 8]: 0.384 mg per cm^2
ug released per cm^2 of catheter [1, 8]: 383.6 ug per cm^2
Amt MB (mg) released per square cm (mg/2.53 cm^2) on disc [1, 9]: 1.95 mg per square cm and 1.92 mg per square cm and 1.93 mg per square cm and 1.96 mg per square cm
Average amount (mg) released per disc [1, 9]: 4.94 mg and 4.87 mg and 4.88 mg and 4.97 mg
ug/cm^2 MB released, flat disc [1, 9]: 1954.1 ug/cm^2 and 1923.6 ug/cm^2 and 1929.0 ug/cm^2 and 1964.3 ug/cm^2
duration of release of the dye from treated catheter [2]: ≥ 9 months
time to perfuse through the membrane ([3]; activated MB solution (citrate, AA), 0.60 mm polycarbonate membrane): ~10 days
concentration of methylene blue in lower chamber, in words ([3]; after 10 days of flow by activated solution): not significant
Total mg MB in 10.5 mL lower chamber ([3]; lower chamber, parabens ~9 hrs at 37 C., then activated MB sol'n ~10 days): 0.0105 mg
MB conc ([3]; lower chamber, parabens ~9 hrs at 37 C., then activated MB sol'n ~10 days, changed every 1 day): 0.001 mg/mL
perfusion of methylene blue through membrane without activation ([3]; listed as Methylene blue): would not perfuse
perfusion of methylene blue through membrane without activation ([3]; listed as methylene blue): minimal
period of significant release of methylene blue ([4]; catheters preincubated with parabens, 0.9% saline): 10 days
methylene blue release at the conclusion of the 81st day ([4]; catheters pretreated with parabens, 0.9% saline (FIG. 11)): a small amount of methylene blue still being released
methylene blue release during the last 20 days of the experiment ([4]; catheters treated only with methylene blue, 0.9% saline (FIG. 10)): negligible release
